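Test compounds were applied to cells in 96-well plates for 48 hours at 5 doses. GI50 = concentration required for 50% inhibition of growth.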 The source made the active and inactive calls. No stated cut-off is given here; in the data, active = GI50 up to about 1.1 µM and inactive = higher.
Tests used:
Assay in all cases: NCI tumour cell line growth inhibition, 48 h
786-0 = system: 786-0
A549 = system: A549
ACHN = system: ACHN
BT-549 = system: BT-549
CAKI-1 = system: CAKI-1
DU-145 = system: DU-145
EKVX = system: EKVX
HCC 2998 = system: HCC 2998
HCT-116 = system: HCT-116
HCT-15 = system: HCT-15
HOP-62 = system: HOP-62
HT-29 = system: HT-29
Hs-578T = system: Hs-578T
IGROV-1 = system: IGROV-1
K562 = system: K562
KM12 = system: KM12
M14 = system: M14
MCF7 = system: MCF7
MDA-MB-435 = system: MDA-MB-435
MDA-N = system: MDA-N
MOLT-4 = system: MOLT-4
Malme-3M = system: Malme-3M
NCI-H226 = system: NCI-H226
NCI-H23 = system: NCI-H23
NCI-H460 = system: NCI-H460
NCI-H522 = system: NCI-H522
NCI/ADR-RES = system: NCI/ADR-RES
OVCAR-3 = system: OVCAR-3
OVCAR-5 = system: OVCAR-5
OVCAR-8 = system: OVCAR-8
PC-3 = system: PC-3
RPMI-8226 = system: RPMI-8226
RXF 393 = system: RXF 393
SF-268 = system: SF-268
SF-295 = system: SF-295
SF-539 = system: SF-539
SK-MEL-28 = system: SK-MEL-28
SK-MEL-2 = system: SK-MEL-2
SK-MEL-5 = system: SK-MEL-5
SK-OV-3 = system: SK-OV-3
SN12C = system: SN12C
SNB-19 = system: SNB-19
SNB-75 = system: SNB-75
SR = system: SR
SW-620 = system: SW-620
TK-10 = system: TK-10
U-251 = system: U-251
UACC-257 = system: UACC-257
UACC-62 = system: UACC-62
UO-31 = system: UO-31

Measured: GI50

CC(C)(C)OC(=O)NC(Cc1ccccc1)NC(=O)NC(=O)OCc1ccccc1 (stereo not given)
> 100 µM: HCT-15
inactive: 786-0 34.4 µM | A549 70.8 µM | ACHN 39.1 µM | BT-549 54.5 µM | CAKI-1 24 µM | DU-145 87.1 µM | EKVX > 100 µM | HCC 2998 40 µM | HCT-116 19.2 µM | HOP-62 31.3 µM | HT-29 > 100 µM | Hs-578T 44 µM | IGROV-1 > 100 µM | K562 74.5 µM | KM12 59.8 µM | M14 57.7 µM | MCF7 > 100 µM | MDA-MB-435 > 100 µM | MDA-N 64 µM | MOLT-4 > 100 µM | Malme-3M 41.8 µM | NCI-H226 28.3 µM | NCI-H23 87.9 µM | NCI-H460 63.7 µM | NCI-H522 15.6 µM | NCI/ADR-RES 55.7 µM | OVCAR-3 42.2 µM | OVCAR-5 > 100 µM | OVCAR-8 55.5 µM | PC-3 18.7 µM | RPMI-8226 > 100 µM | RXF 393 22 µM | SF-268 40.3 µM | SF-295 36.6 µM | SF-539 25.7 µM | SK-MEL-28 38.9 µM | SK-MEL-2 34.3 µM | SK-MEL-5 26.7 µM | SK-OV-3 54.6 µM | SN12C > 100 µM | SNB-19 36.5 µM | SNB-75 32.8 µM | SR > 100 µM | SW-620 59.6 µM | TK-10 53.2 µM | U-251 58.5 µM | UACC-257 81.3 µM | UACC-62 25.3 µM | UO-31 > 100 µM

Reference: ChEMBL document CHEMBL1201862, “PubChem BioAssay data set” (2004)
